Assay results reported in ChEMBL document CHEMBL1201862, “PubChem BioAssay data set” (2004).
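A five-concentration, 48-hour dose response in 96-well plates underlies each endpoint, interpolated linearly between surrounding concentrations. GI50 marks 50% less growth.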 Calls of active or inactive are those of the source. Cut-off read from the data, not from the text of the source: active = GI50 up to about 1.1 µM and inactive = higher.

Columns and labels:
Assay in all cases: DTP human tumour cell line panel, 48 h
[1] = tested on: 786-0
[2] = tested on: NCI/ADR-RES
[3] = tested on: IGROV-1
[4] = tested on: LOX IMVI
[5] = tested on: A498
[6] = tested on: SK-MEL-28
[7] = tested on: EKVX
[8] = tested on: COLO 205
[9] = tested on: SNB-19
[10] = tested on: HL-60
[11] = tested on: SF-268
[12] = tested on: MDA-MB-435
[13] = tested on: Malme-3M
[14] = tested on: SNB-75
[15] = tested on: U-251
[16] = tested on: RPMI-8226
[17] = tested on: T47D
[18] = tested on: KM12
[19] = tested on: MOLT-4
[20] = tested on: MDA-MB-231

Row | SMILES | GI50 [1] | GI50 [2] | GI50 [3] | GI50 [4] | GI50 [5] | GI50 [6] | GI50 [7] | GI50 [8] | GI50 [9] | GI50 [10] | GI50 [11] | GI50 [12] | GI50 [13] | GI50 [14] | GI50 [15] | GI50 [16] | GI50 [17] | GI50 [18] | GI50 [19] | GI50 [20]
1 | N#Cc1[nH]c(=S)[nH]c1N | > 100 µM (inactive) | > 100 µM (inactive) | > 100 µM (inactive) | > 100 µM (inactive) | > 100 µM (inactive) | > 100 µM (inactive) | > 100 µM (inactive) | > 100 µM (inactive) | > 100 µM (inactive) | > 100 µM (inactive) | > 100 µM (inactive) | > 100 µM (inactive) | > 100 µM (inactive) | > 100 µM (inactive) | > 100 µM (inactive) |  |  |  |  | 
2 | NN/C(=N\S(=O)(=O)c1cccc2nsnc12)Nc1ccc(Cl)cc1 | > 100 µM (inactive) | > 100 µM (inactive) | > 100 µM (inactive) | > 100 µM (inactive) | > 100 µM (inactive) | > 100 µM (inactive) | > 100 µM (inactive) | > 100 µM (inactive) | > 100 µM (inactive) | 9.98 µM (inactive) | 26.2 µM (inactive) |  |  | 65.9 µM (inactive) | > 100 µM (inactive) | > 100 µM (inactive) | 48.6 µM (inactive) | > 100 µM (inactive) | 61 µM (inactive) | > 100 µM (inactive)
3 | Cc1cc(O)c(C(c2cccnc2)c2c(O)cc(C)[nH]c2=O)c(=O)[nH]1 | > 100 µM (inactive) | > 100 µM (inactive) | > 100 µM (inactive) | > 100 µM (inactive) |  | > 100 µM (inactive) | > 100 µM (inactive) | > 100 µM (inactive) | > 100 µM (inactive) | > 100 µM (inactive) | > 100 µM (inactive) | > 100 µM (inactive) | > 100 µM (inactive) |  | > 100 µM (inactive) | > 100 µM (inactive) | > 100 µM (inactive) | > 100 µM (inactive) | > 100 µM (inactive) | > 100 µM (inactive)
4 | O=C(CC(C(=O)c1ccsc1)c1ccc2c(c1)OCO2)c1ccccc1 (centres undefined) | > 100 µM (inactive) | > 100 µM (inactive) | > 100 µM (inactive) | > 100 µM (inactive) | > 100 µM (inactive) | > 100 µM (inactive) | > 100 µM (inactive) | > 100 µM (inactive) |  | > 100 µM (inactive) | > 100 µM (inactive) | > 100 µM (inactive) |  | > 100 µM (inactive) | > 100 µM (inactive) | > 100 µM (inactive) | 51.6 µM (inactive) | > 100 µM (inactive) | > 100 µM (inactive) | 
5 | CC(C)CC(NC(=O)OCc1ccccc1)C(=O)NCCCCC(N)C(=O)NC(CCCCNC(=O)C(CC(C)C)NC(=O)OCc1ccccc1)C(=O)NC(CCCCNC(=O)C(CC(C)C)NC(=O)OCc1ccccc1)C(=O)NC(CCCCNC(=O)C(CC(C)C)NC(=O)OCc1ccccc1)C(=O)NC(CCCCNC(=O)C(CC(C)C)NC(=O)OCc1ccccc1)C(=O)NC(CCCCNC(=O)C(CC(C)C)NC(=O)OCc1ccccc1)C(=O)O (centres undefined) | > 100 µM (inactive) |  | > 100 µM (inactive) | 88.5 µM (inactive) | > 100 µM (inactive) |  |  |  | > 100 µM (inactive) | > 100 µM (inactive) |  | > 100 µM (inactive) | > 100 µM (inactive) |  | > 100 µM (inactive) | > 100 µM (inactive) | > 100 µM (inactive) |  | > 100 µM (inactive) | > 100 µM (inactive)
6 | Cc1ccccc1NC(=O)C(=O)CC(=O)c1sc(Nc2ccccc2[N+](=O)[O-])nc1C | 21.5 µM (inactive) | 41.2 µM (inactive) | 41.4 µM (inactive) | 37.4 µM (inactive) |  | 25.7 µM (inactive) | 34 µM (inactive) | 86.1 µM (inactive) | 34.7 µM (inactive) | 60.4 µM (inactive) | 38.5 µM (inactive) | 29 µM (inactive) |  |  | 30.3 µM (inactive) | 27.9 µM (inactive) | 27.2 µM (inactive) | 47.5 µM (inactive) | 51.1 µM (inactive) | 17.3 µM (inactive)
7 | c1ccc(C2CC(N3CCOCC3)=Nc3ccccc3N2)cc1 (centres undefined) | > 100 µM (inactive) | > 100 µM (inactive) | 93.8 µM (inactive) |  | > 100 µM (inactive) | > 100 µM (inactive) | > 100 µM (inactive) | > 100 µM (inactive) | > 100 µM (inactive) | > 100 µM (inactive) | > 100 µM (inactive) | 54.3 µM (inactive) | 80.9 µM (inactive) |  | > 100 µM (inactive) | 43.9 µM (inactive) |  | > 100 µM (inactive) | 70.6 µM (inactive) | > 100 µM (inactive)
8 | COc1ccc(-c2ncn(C[Si](C)(C)C)c2-c2ccc(OC)cc2)cc1 | 5.15 µM (inactive) | 5.08 µM (inactive) | 6.21 µM (inactive) | 4.89 µM (inactive) |  | 2.33 µM (inactive) | 3.13 µM (inactive) | 2.54 µM (inactive) | 7.64 µM (inactive) | 1.72 µM (inactive) | 12.1 µM (inactive) | 3.73 µM (inactive) | 10.4 µM (inactive) | 13.1 µM (inactive) | 6.9 µM (inactive) | 1.69 µM (inactive) |  | 4.92 µM (inactive) | 0.863 µM (active) | 12.9 µM (inactive)
9 | Cc1cccc(/C=C2\CCCc3ccccc3C2=O)c1 | 32.1 µM (inactive) | 22.4 µM (inactive) | 21.6 µM (inactive) | 19.3 µM (inactive) |  | 23.8 µM (inactive) | 20.6 µM (inactive) | 18.9 µM (inactive) | 24.4 µM (inactive) | 12.1 µM (inactive) | 15.2 µM (inactive) | 17 µM (inactive) | 18.1 µM (inactive) | 42.2 µM (inactive) | 18.6 µM (inactive) | 8.2 µM (inactive) |  | 13.4 µM (inactive) | 16.9 µM (inactive) | 18.5 µM (inactive)
10 | CC1(C)OC(CCC#N)CN1C(=O)OCc1ccccc1 (centres undefined) | > 100 µM (inactive) | > 100 µM (inactive) | > 100 µM (inactive) | > 100 µM (inactive) | > 100 µM (inactive) | > 100 µM (inactive) | > 100 µM (inactive) | > 100 µM (inactive) | 9.57 µM (inactive) | > 100 µM (inactive) |  | > 100 µM (inactive) | 49 µM (inactive) | 3.4 µM (inactive) | > 100 µM (inactive) | > 100 µM (inactive) |  | 28.9 µM (inactive) | > 100 µM (inactive) | > 100 µM (inactive)
11 | CC(=O)O[C@H]1C(=O)[C@@]2(C)[C@H]([C@H](OC(=O)c3ccco3)[C@]3(O)C[C@H](OC(=O)[C@H](O)[C@@H](NC(=O)c4ccccc4)c4ccccc4)C(C)=C1C3(C)C)[C@]1(OC(C)=O)CO[C@@H]1C[C@@H]2O | 1.16 µM (inactive) | > 25 µM (inactive) | 0.251 µM (active) | 0.129 µM (active) | 3.81 µM (inactive) |  | > 8.79 µM (inactive) | 0.114 µM (active) | 0.344 µM (active) | 0.0227 µM (active) | 0.185 µM (active) | 0.0165 µM (active) | 0.119 µM (active) | 0.134 µM (active) | 0.125 µM (active) | 0.0189 µM (active) |  | 0.0834 µM (active) | 0.114 µM (active) | 4.58 µM (inactive)
12 | Cc1cc(S(=O)(=O)Nc2nc3cscc3c(=O)n2N)c(S)cc1Cl | 54.6 µM (inactive) | 26.3 µM (inactive) | 50.7 µM (inactive) | 36.5 µM (inactive) |  | 73.3 µM (inactive) | 70.1 µM (inactive) | > 100 µM (inactive) | 35.9 µM (inactive) | > 100 µM (inactive) | 17.7 µM (inactive) | 56 µM (inactive) | 39.4 µM (inactive) | 15 µM (inactive) | 37.3 µM (inactive) | 96.6 µM (inactive) |  | 39.5 µM (inactive) | 57.3 µM (inactive) | 73.8 µM (inactive)
13 | CC(=O)OCCOCn1c2c(c(=O)[nH]c1=O)CCC2 | > 100 µM (inactive) |  | > 100 µM (inactive) | > 100 µM (inactive) |  | > 100 µM (inactive) | > 100 µM (inactive) | > 100 µM (inactive) | 8.53 µM (inactive) | > 100 µM (inactive) | > 100 µM (inactive) | > 100 µM (inactive) | > 100 µM (inactive) | > 100 µM (inactive) | > 100 µM (inactive) | > 100 µM (inactive) |  | > 100 µM (inactive) | > 100 µM (inactive) | > 100 µM (inactive)
14 | O=[N+]([O-])c1cc([N+](=O)[O-])c(C(Cl)C(Cl)c2ccccc2)cc1C(Cl)C(Cl)c1ccccc1 (centres undefined) | 1.69 µM (inactive) |  | 2.46 µM (inactive) | 1.64 µM (inactive) | 1.82 µM (inactive) | 1.9 µM (inactive) | 2.2 µM (inactive) | 1.73 µM (inactive) | 2.32 µM (inactive) | 7.29 µM (inactive) | 1.77 µM (inactive) |  | 1.76 µM (inactive) | 2.47 µM (inactive) | 1.82 µM (inactive) | 1.07 µM (active) |  | 1.85 µM (inactive) | 2.3 µM (inactive) | 
15 | CC[C@@H]1C[C@@H]2CN3CCc4c([nH]c5ccc(OC)cc45)C(COC(=O)c4ccc(OC)c(OC)c4)(C2)C13 | 25.2 µM (inactive) |  | 20.2 µM (inactive) | 12.7 µM (inactive) | 21 µM (inactive) | 43.3 µM (inactive) | 53.5 µM (inactive) | 21.2 µM (inactive) | 37.6 µM (inactive) | 14.5 µM (inactive) | 33 µM (inactive) |  | > 10 µM (inactive) | 24.5 µM (inactive) | 16.5 µM (inactive) | 16.1 µM (inactive) |  | 23.8 µM (inactive) | 11.4 µM (inactive) | 
